Experimental data taken from patent publication US12275729B2 (Merck Sharp & Dohme LLC, priority 2017, dated 2025).
pIC50: −log10 of the molar value.

target: IDO1 (Homo sapiens, UniProt P14902); assay: IDO1 Cellular Assay in HeLa Cells Stimulated with IFNγ; type: cell-based; details: about 48 hours, read-out: Hela IC50
Procedure: Biological Assays IDO1 Cellular Assay in HeLa Cells Stimulated with IFNγ
HeLa cells were cultured in complete HeLa culture medium (90% EMEM, 10% heat-inactivated fetal bovine serum) and expanded to about 1×10^9 cells. The cells were then collected and frozen down at 1×10^7 cells/vial in 1 mL frozen medium (90% complete HeLa culture medium, 10% DMSO).
Compounds to be tested were serially diluted in ten 3-fold steps in DMSO starting from 10 mM DMSO stocks in Echo low volume plate(s).
Frozen HeLa cells were thawed and transferred into HeLa assay medium (99% complete HeLa culture medium, 1% Pen/Strep) with 20 mL medium/vial of cells. The cells were spun down at 250 g in a table top centrifuge for 5 min and suspended in same volume of HeLa assay medium. The cells were then counted and adjusted to a density of 2×10^5 cells/mL in HeLa assay medium. Sterile L-tryptophan were added to the cells with final concentration of 300 uM L-tryptophan. A small aliquot (2 mL/plate) of HeLa cells were set aside and were not treated with IFNγ, to serve as the Max-E control.
HeLa cells with and without IFNγ were dispensed to the respective wells of 384-well assay plates containing the compounds. The plates were incubated for about 48 hours at a 37° C., 5% CO2 incubator. Afterwards, 12 μL of 0.5 M methyl isonipecotate in dimethyl sulfoxide were added into each well and the plates were sealed and incubated at 37° C. without CO2 overnight. The plates were centrifuged for 1 min at 200×g. The resulting fluorescence was measured in a Spectramax plate reader (Molecular Devices) with a 400 nm excitation filter and a 510 nm emission filter.
Potencies were calculated by […] least squares fit to the four parameter logistic IC50 equation.

Chain of IDO1 (P14902 whole entry): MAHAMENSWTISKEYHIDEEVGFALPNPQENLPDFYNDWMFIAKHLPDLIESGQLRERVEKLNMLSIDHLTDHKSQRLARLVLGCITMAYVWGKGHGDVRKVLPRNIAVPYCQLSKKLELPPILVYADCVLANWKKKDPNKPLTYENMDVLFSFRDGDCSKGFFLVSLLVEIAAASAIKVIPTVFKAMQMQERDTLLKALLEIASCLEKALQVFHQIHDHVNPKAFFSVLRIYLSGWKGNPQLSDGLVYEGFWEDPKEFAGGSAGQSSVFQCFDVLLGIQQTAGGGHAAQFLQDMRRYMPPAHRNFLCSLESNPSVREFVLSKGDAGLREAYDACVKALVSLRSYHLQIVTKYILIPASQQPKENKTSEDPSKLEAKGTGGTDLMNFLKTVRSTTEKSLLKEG

SMILES	pIC50
CC(C(=O)Nc1ccc(Cl)cc1)c1ccc2c(c1)CC(F)CN2C(=O)c1cccc(Cl)c1 (single isomer, unassigned) [Example 258, 2-(1-(3-chlorobenzoyl)-3-fluoro-1,2,3,4-tetrahydroquinolin-6-yl)-N-(4-chlorophenyl)propanamide]	8.23
CC(C(=O)Nc1ccc(F)cc1)c1ccc2c(c1)CCCN2Cc1cccc(Cl)c1 (single isomer, unassigned) [Example 226, 2-{1-[(3-chlorophenyl)methyl]-1,2,3,4-tetrahydroquinolin-6-yl}-N-(4-fluorophenyl)propanamide]	7.36
Cc1ccnc(C(=O)N2CCCc3nc(C4(C(=O)Nc5ccc(F)cc5)COC4)ccc32)n1 [Example 400, N-(4-fluorophenyl)-3-(5-(4-methylpyrimidine-2-carbonyl)-5,6,7,8-tetrahydro-1,5-naphthyridin-2-yl)oxetane-3-carboxamide]	8.72
CC(C)C(C(=O)Nc1ccc(F)cc1)c1ccc2c(n1)CCCN2C(=O)C1CC1 (stereo not shown) [Example 264, 2-(5-(cyclopropanecarbonyl)-5,6,7,8-tetrahydro-1,5-naphthyridin-2-yl)-N-(4-fluorophenyl)-3-methylbutanamide]	7.51
O=C(NC1(c2ccc3c(n2)CCCN3C(=O)C2CCOCC2)CC1)c1ccc(F)cc1 [Example 172, 4-fluoro-N-{1-[5-(oxane-4-carbonyl)-5,6,7,8-tetrahydro-1,5-naphthyridin-2-yl]cyclopropyl}benzamide]	7.79
COC(=O)N1CCCc2nc(C3(NC(=O)c4ccc(Cl)cc4)CCC3)ccc21 [Example 219, methyl 6-{1-[(4-chlorobenzene-1-carbonyl)amino]cyclobutyl}-3,4-dihydro-1,5-naphthyridine-1(2H)-carboxylate]	8.00
COC(=O)N1CCCc2nc(C3(C(=O)Nc4ccc(F)cc4)CC3)ccc21 [Example 222, methyl 6-{1-[(4-fluorophenyl)carbamoyl]cyclopropyl}-3,4-dihydro-1,5-naphthyridine-1(2H)-carboxylate]	7.66
Cc1cc(C(=O)N2CCCc3cc(C(C)C(=O)Nc4ccc(F)cc4)ccc32)no1 (stereo not shown) [Example 46, N-(4-fluorophenyl)-2-[1-(5-methyl-1,2-oxazole-3-carbonyl)-1,2,3,4-tetrahydroquinolin-6-yl]propanamide]	8.41
CC(NC(=O)c1ccc(F)cc1)c1ccc2c(n1)C(O)CCN2C(=O)C1CC1 (stereo not shown) [Example 196, N-(1-(5-(cyclopropanecarbonyl)-8-hydroxy-5,6,7,8-tetrahydro-1,5-naphthyridin-2-yl)ethyl)-4-fluorobenzamide]	6.47
Cc1cc(C(=O)NCc2ccc3c(c2)CCCN3C(=O)c2cccc(Cl)c2)no1 [Example 22, N-{[1-(3-chlorobenzene-1-carbonyl)-1,2,3,4-tetrahydroquinolin-6-yl]methyl}-5-methyl-1,2-oxazole-3-carboxamide]	7.35
Cc1cc(N2CCCc3nc(C4(NC(=O)c5ccc(F)cc5)CC4)ccc32)ccn1 [Example 243, 4-fluoro-N-{1-[5-(2-methylpyridin-4-yl)-5,6,7,8-tetrahydro-1,5-naphthyridin-2-yl]cyclopropyl}benzamide]	7.84
CC(C(=O)Nc1ccc(F)cc1)c1ccc2c(c1)CCCN2C(=O)c1cnco1 (stereo not shown) [Example 49, N-(4-fluorophenyl)-2-[1-(1,3-oxazole-5-carbonyl)-1,2,3,4-tetrahydroquinolin-6-yl]propanamide]	7.52
Cc1ccc(C(=O)NCc2ccc3c(c2)CCCN3C(=O)CC(C)C)cc1 [Example 5, 4-methyl-N-{[1-(3-methylbutanoyl)-1,2,3,4-tetrahydroquinolin-6-yl]methyl}benzamide]	7.11
C[C@H](C(=O)Nc1ccc(F)cc1)c1ccc2c(c1)CCCN2C(=O)[C@@H]1CCCO1 [Example 84, (2S)-N-(4-fluorophenyl)-2-{1-[(2S)-oxolane-2-carbonyl]-1,2,3,4-tetrahydroquinolin-6-yl]propanamide]	7.49
CC(C)CC(=O)N1CCCc2cc(CNC(=O)c3ccc(C(F)(F)F)cc3)ccc21 [Example 7, N-{[1-(3-methylbutanoyl)-1,2,3,4-tetrahydroquinolin-6-yl]methyl}-4-(trifluoromethyl)benzamide]	7.37
Cc1cc(C(=O)NCc2ccc3c(c2)CCCN3C(=O)c2cccc(Cl)c2)on1 [Example 20, N-{[1-(3-chlorobenzene-1-carbonyl)-1,2,3,4-tetrahydroquinolin-6-yl]methyl}-3-methyl-1,2-oxazole-5-carboxamide]	7.22
CC(C)C(C(=O)Nc1ccc(F)cc1)c1ccc2c(n1)CCCN2C(=O)C1CC1 (stereo not shown) [Example 265, 2-(5-(cyclopropanecarbonyl)-5,6,7,8-tetrahydro-1,5-naphthyridin-2-yl)-N-(4-fluorophenyl)-3-methylbutanamide]	7.80
Cc1ccnc(C(=O)N2CCCc3cc(C4(C(=O)Nc5ccc(F)cn5)CCC4)ccc32)n1 [Example 118, N-(5-fluoropyridin-2-yl)-1-[1-(4-methylpyrimidine-2-carbonyl)-1,2,3,4-tetrahydroquinolin-6-yl]cyclobutane-1-carboxamide]	8.82
CC(NC(=O)c1ccc(F)cc1)c1ccc2c(n1)CCCN2C(=O)C1(C)CCCCO1 (stereo not shown) [Example 136, 4-fluoro-N-{1-[5-(2-methyloxane-2-carbonyl)-5,6,7,8-tetrahydro-1,5-naphthyridin-2-yl]ethyl}benzamide]	6.27
C[C@H](C(=O)Nc1ccc(F)cc1)c1ccc2c(c1)CCCN2C(=O)CC(C)(C)C [Example 90, (2S)-2-[1-(3,3-dimethylbutanoyl)-1,2,3,4-tetrahydroquinolin-6-yl]-N-(4-fluorophenyl)propanamide]	8.15
CC(NC(=O)c1ccc(F)cc1)c1ccc2c(n1)CCCN2C(=O)C1(C)CCCCO1 (stereo in doubt) [Example 139, 4-fluoro-N-(1-{5-[(2S)-2-methyloxane-2-carbonyl]-5,6,7,8-tetrahydro-1,5-naphthyridin-2-yl}ethyl)benzamide]	6.46
COC(C(=O)Nc1ccc(F)cn1)c1ccc2c(c1)CCCN2C(=O)C1CC1 (single isomer, unassigned) [Example 156, 2-(1-(cyclopropanecarbonyl)-1,2,3,4-tetrahydroquinolin-6-yl)-N-(5-fluoropyridin-2-yl)-2-methoxyacetamide]	6.10
COC(=O)N1CCCc2nc(C3(C(=O)Nc4ccc(F)cc4)CCC3)ccc21 [Example 216, methyl 6-{1-[(4-fluorophenyl)carbamoyl]cyclobutyl}-3,4-dihydro-1,5-naphthyridine-1(2H)-carboxylate]	8.82
CC(=O)N1CC(C(=O)N2CCCc3cc([C@H](C)C(=O)Nc4ccc(F)cc4)ccc32)C1 [Example 69, (2S)-2-[1-(1-acetylazetidine-3-carbonyl)-1,2,3,4-tetrahydroquinolin-6-yl]-N-(4-fluorophenyl)propanamide]	5.04
O=C([C@H]1CCCO1)N1CCCc2nc(C3(C(=O)Nc4ccc(F)cc4)CCC3)ccc21 [Example 180, N-(4-fluorophenyl)-1-{5-[(2R)-oxolane-2-carbonyl]-5,6,7,8-tetrahydro-1,5-naphthyiridin-2-yl}cyclobutane-1-carboxamide]	8.72

same assay, conditions: read-out: Hela IC50

SMILES	pIC50
COc1ccc(C(=O)NC(C)c2ccc3c(n2)CCCN3C(=O)OC2CC2)cc1 (stereo not shown) [Example 338, cyclopropyl 6-(1-(4-methoxybenzamido)ethyl)-3,4-dihydro-1,5-naphthyridine-1(2H)-carboxylate]	6.79
COc1cccc(C(=O)NC(C)c2ccc3c(n2)CCCN3C(=O)OC2CC2)c1 (stereo not shown) [Example 336, cyclopropyl 6-(1-(3-methoxybenzamido)ethyl)-3,4-dihydro-1,5-naphthyridine-1(2H)-carboxylate]	6.01
CC(NC(=O)c1ccc(F)cc1)c1ccc2c(n1)CCCN2C(=O)OCCn1ccnc1 (stereo not shown) [Example 328, 2-(1H-imidazol-1-yl)ethyl 6-(1-(4-fluorobenzamido)ethyl)-3,4-dihydro-1,5-naphthyridine-1(2H)-carboxylate]	6.32
CC(NC(=O)c1ccc(F)cc1)c1ccc2c(n1)CCCN2C(=O)OCCCn1ccnc1 (stereo not shown) [Example 325, 3-(1H-imidazol-1-yl)propyl 6-(1-(4-fluorobenzamido)ethyl)-3,4-dihydro-1,5-naphthyridine-1(2H)-carboxylate]	5.89
CC(C)Oc1cccc(N2CCCc3nc(C(C)NC(=O)c4ccc(Cl)cc4)ccc32)n1 (stereo not shown) [Example 353, 4-chloro-N-(1-(5-(6-isopropoxypyridin-2-yl)-5,6,7,8-tetrahydro-1,5-naphthyridin-2-yl)ethyl)benzamide]	7.11
C[C@H](NC(=O)c1ccc(F)cc1)c1ccc2c(n1)CCCN2c1cccc(OC(C)(C)C)n1 [Example 385, (S)-N-(1-(5-(6-(tert-butoxy)pyridin-2-yl)-5,6,7,8-tetrahydro-1,5-naphthyridin-2-yl)ethyl)-4-fluorobenzamide]	6.01
